{"source": "patent US11278709B1", "about": "“Drug delivery device and methods for using same” (Pocket Naloxone Corp., priority 2021, dated 2022)", "origin": "cited, not measured here", "conditions": "4 mg dose via a nasal spray"}
{"smiles": "C=CCN1CC[C@]23c4c5ccc(O)c4O[C@H]2C(=O)CC[C@@]3(O)[C@H]1C5", "note": "[naloxone]", "values": [{"measurement": "AUClast", "value": 7.95, "unit": "ng·h/mL"}, {"measurement": "Cmax", "value": 4.83, "unit": "ng/mL"}]}
